Measured values taken from paper PMC3415323 (International Journal of Nanomedicine, 2012).

Target: p-gp (Homo sapiens, UniProt P08183)
Test: Effect of p-gp inhibitors on cellular transport of HSYA solution
Assay type: in vitro ADME
Settings: Figure 5A

Sequence of p-gp (P08183 whole entry): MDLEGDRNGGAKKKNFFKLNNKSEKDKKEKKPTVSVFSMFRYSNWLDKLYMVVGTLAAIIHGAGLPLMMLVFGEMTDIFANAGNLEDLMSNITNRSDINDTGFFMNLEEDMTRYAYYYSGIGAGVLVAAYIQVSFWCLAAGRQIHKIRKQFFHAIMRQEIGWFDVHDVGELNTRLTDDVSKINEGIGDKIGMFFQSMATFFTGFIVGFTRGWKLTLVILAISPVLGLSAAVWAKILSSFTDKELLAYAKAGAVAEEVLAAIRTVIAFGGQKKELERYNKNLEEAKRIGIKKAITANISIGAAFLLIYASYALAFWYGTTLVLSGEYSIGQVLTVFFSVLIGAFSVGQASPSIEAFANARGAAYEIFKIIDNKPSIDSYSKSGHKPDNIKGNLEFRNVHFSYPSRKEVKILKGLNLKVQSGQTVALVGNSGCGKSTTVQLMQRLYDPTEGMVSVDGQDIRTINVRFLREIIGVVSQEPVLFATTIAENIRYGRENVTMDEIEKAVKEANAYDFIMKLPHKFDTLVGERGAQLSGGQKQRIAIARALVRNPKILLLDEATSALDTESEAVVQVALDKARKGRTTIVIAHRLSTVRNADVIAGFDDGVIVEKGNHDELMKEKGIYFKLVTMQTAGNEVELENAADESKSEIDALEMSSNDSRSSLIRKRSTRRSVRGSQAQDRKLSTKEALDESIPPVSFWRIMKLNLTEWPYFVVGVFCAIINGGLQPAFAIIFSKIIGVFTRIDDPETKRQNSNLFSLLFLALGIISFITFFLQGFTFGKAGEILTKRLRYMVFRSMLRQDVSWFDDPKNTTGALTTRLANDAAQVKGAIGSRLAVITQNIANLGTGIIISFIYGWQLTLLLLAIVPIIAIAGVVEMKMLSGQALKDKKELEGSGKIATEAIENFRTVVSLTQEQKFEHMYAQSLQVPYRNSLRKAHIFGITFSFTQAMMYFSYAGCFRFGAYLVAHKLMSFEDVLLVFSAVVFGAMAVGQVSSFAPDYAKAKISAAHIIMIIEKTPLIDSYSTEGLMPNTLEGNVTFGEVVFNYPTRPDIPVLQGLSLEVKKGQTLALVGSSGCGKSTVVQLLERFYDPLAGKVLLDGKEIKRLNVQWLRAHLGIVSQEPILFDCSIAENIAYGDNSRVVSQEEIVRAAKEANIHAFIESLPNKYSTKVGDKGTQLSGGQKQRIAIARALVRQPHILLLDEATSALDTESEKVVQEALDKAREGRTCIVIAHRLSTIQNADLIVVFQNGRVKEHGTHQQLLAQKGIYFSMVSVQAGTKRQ

effect on the absorption of HSYA on Caco-2 cells: significantly increased
Compound: Cc1nc(C)c(C)nc1C [TMP, tetramethylpyrazine]
